pIC50: −log10 of the molar value.

Experiment [1] concerns HeLa. The experiment is described as follows: Cytotoxicity against human HeLa cells assessed as cell viability after 48 hrs by SRB assay. It is filed as functional, cell-based. Background: The SRB assay estimates cell density from bound dye.
The test system of experiment [2] is MCF7. The experiment is described as follows: Cytotoxicity against human MCF7 cells assessed as cell viability after 48 hrs by SRB assay. It counts as functional, cell-based. The following applies: MCF7, 48 h.
Experiment [3] in a line: Cytotoxicity against human DU145 cells assessed as cell viability after 48 hrs by SRB assay. It is filed as functional, cell-based. The note with it: DU-145, 48 h.
Experiment [4] can be described thus: Cytotoxicity against human MIAPaCa2 cells assessed as cell viability after 48 hrs by SRB assay. The note with it: MIA PaCa-2, 48 h. It is filed as functional, cell-based.
For experiment [5], the target named is Tubulin (Sus scrofa) (UniProt P02554+P02550). The experiment is described as follows: Inhibition of porcine brain tubulin polymerization at 5 uM by fluorescence based assay.
Tubulin (Sus scrofa), sequence (P02550 whole entry, looked up): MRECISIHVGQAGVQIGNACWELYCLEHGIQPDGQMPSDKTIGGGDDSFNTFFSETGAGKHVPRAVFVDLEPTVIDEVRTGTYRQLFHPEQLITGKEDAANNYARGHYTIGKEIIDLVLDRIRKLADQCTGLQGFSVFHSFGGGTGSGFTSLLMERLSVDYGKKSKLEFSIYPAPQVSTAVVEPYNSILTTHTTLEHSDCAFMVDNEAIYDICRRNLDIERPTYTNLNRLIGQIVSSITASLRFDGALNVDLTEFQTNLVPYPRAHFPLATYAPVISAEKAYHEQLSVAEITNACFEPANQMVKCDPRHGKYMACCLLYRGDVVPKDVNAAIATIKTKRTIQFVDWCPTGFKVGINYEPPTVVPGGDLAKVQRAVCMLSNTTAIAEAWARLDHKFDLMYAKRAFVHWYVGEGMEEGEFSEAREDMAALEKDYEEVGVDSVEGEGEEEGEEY
Tubulin (Sus scrofa), sequence (P02554 whole entry, looked up): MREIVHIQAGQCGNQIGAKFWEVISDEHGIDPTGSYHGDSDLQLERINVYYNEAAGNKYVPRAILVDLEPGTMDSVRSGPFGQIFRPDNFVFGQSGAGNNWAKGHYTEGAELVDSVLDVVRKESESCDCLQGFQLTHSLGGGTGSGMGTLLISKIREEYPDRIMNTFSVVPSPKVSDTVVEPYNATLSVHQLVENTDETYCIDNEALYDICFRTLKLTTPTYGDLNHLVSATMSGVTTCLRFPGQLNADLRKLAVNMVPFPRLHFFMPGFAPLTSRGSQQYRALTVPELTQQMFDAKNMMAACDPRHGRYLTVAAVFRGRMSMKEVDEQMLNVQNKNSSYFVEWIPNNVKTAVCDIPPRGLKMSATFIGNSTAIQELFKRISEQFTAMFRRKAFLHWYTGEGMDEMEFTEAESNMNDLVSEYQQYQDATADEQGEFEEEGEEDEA

In general, pIC50 refers to the negative decadic logarithm of the IC50, by convention in mol/L. On to `CCc1nn2c(-c3cc(F)cc(F)c3)c(-c3cc(OC)c(OC)c(OC)c3)nc2s1`, for which the pIC50 is 4.58 in experiment [1], 4.44 in experiment [2], 4.66 in experiment [3] and 4.51 in experiment [4].

Take `CCc1nn2c(-c3ccc(C)cc3)c(-c3cc(OC)c(OC)c(OC)c3)nc2s1`: the pIC50 is 4.83 in experiment [1], 4.78 in experiment [2], 4.66 in experiment [3] and 4.69 in experiment [4].

As for `CCc1nn2c(-c3ccc4c(c3)OCO4)c(-c3cc(OC)c(OC)c(OC)c3)nc2s1`, the pIC50 was 5.06 in experiment [1], 4.94 in experiment [2], 4.73 in experiment [3] and 4.88 in experiment [4].

Turning to `CCc1nn2c(-c3ccc(F)c(Cl)c3)c(-c3cc(OC)c(OC)c(OC)c3)nc2s1`, the negative logarithm of the IC50 (pIC50) in experiment [1] is 4.86; in experiment [2], 4.84; in experiment [3], 4.94; in experiment [4], 4.76.

Take `COc1cc(F)ccc1-c1c(-c2cc(OC)c(OC)c(OC)c2)nc2sc(C3CC3)nn12`: the pIC50 in experiment [1] was 4.59; in experiment [2], 4.46; in experiment [3], 4.65; in experiment [4], 4.39.

Take `CCc1nn2c(-c3ccc(C(F)(F)F)cc3)c(-c3cc(OC)c(OC)c(OC)c3)nc2s1`: the pIC50 in experiment [1] is 4.98; in experiment [2], 4.93; in experiment [3] it was 4.74; in experiment [4] it was 4.83.

For `COc1ccc(-c2c(-c3cc(OC)c(OC)c(OC)c3)nc3sc(C4CC4)nn23)cc1OC`, the pIC50 is 4.81 in experiment [1], 4.89 in experiment [2], 4.78 in experiment [3] and 4.71 in experiment [4].

For `CCc1nn2c(-c3ccc(OC(F)(F)F)cc3)c(-c3cc(OC)c(OC)c(OC)c3)nc2s1`, the pIC50 in experiment [1] is 4.87; in experiment [2], 4.83; in experiment [3], 4.63; in experiment [4] it was 4.79.

With `COc1cc(-c2nc3sc(C4CC4)nn3c2-c2ccc3c(c2)OCO3)cc(OC)c1OC`, the pIC50 in experiment [1] was 4.77; in experiment [2], 4.59; in experiment [3], 4.89; in experiment [4], 4.71.

For the compound `COc1cc(-c2nc3sc(C4CC4)nn3c2-c2ccc(Cl)cc2)cc(OC)c1OC`, the pIC50 in experiment [1] is 4.72; in experiment [2], 4.64; in experiment [3], 4.94; in experiment [4], 4.76.

For the compound `COc1cc(-c2nc3sc(C4CC4)nn3c2-c2ccc3ccccc3c2)cc(OC)c1OC`, the pIC50 in experiment [1] is 4.71; in experiment [2], 4.82; in experiment [3] it was 4.35; in experiment [4], 4.67.

On to `COc1cc(-c2nc3sc(C4CC4)nn3c2-c2ccc(F)c(Cl)c2)cc(OC)c1OC`, for which the pIC50 in experiment [1] was 4.81; in experiment [2], 4.73; in experiment [3], 4.86; in experiment [4], 4.68.

For the compound `CCc1nn2c(-c3ccc(F)cc3OC)c(-c3cc(OC)c(OC)c(OC)c3)nc2s1`, the pIC50 in experiment [1] is 4.55; in experiment [2], 4.52; in experiment [3], 4.45; in experiment [4] it was 4.54.

For the compound `COc1cc(-c2nc3sc(C4CC4)nn3c2-c2cc(OC)c(OC)c(OC)c2)cc(OC)c1OC`, the pIC50 in experiment [1] is 4.86; in experiment [2] it was 4.44; in experiment [3] it was 4.28; in experiment [4], 4.40.

`CCc1ccc(-c2c(-c3cc(OC)c(OC)c(OC)c3)nc3sc(CC)nn23)cc1`: the pIC50 in experiment [1] is 4.91; in experiment [2], 4.90; in experiment [3] it was 4.61; in experiment [4] it was 4.84.

For the compound `CCc1nn2c(-c3ccc(F)cc3)c(-c3cc(OC)c(OC)c(OC)c3)nc2s1`, the pIC50 was 4.95 in experiment [1], 5.01 in experiment [2], 4.78 in experiment [3] and 4.98 in experiment [4].

Consider `CCc1ccc(-c2c(-c3cc(OC)c(OC)c(OC)c3)nc3sc(C4CC4)nn23)cc1`, for which the pIC50 in experiment [1] was 4.44; in experiment [2] it was 4.53; in experiment [3] it was 4.87; in experiment [4], 4.40.

Take `COc1cc(-c2nc3sc(C4CC4)nn3c2-c2ccc(OC(F)(F)F)cc2)cc(OC)c1OC`: the pIC50 in experiment [1] is 4.95; in experiment [2] it was 4.77; in experiment [3] it was 4.89; in experiment [4] it was 4.74.

For the compound `COc1cc(-c2nc3sc(C4CC4)nn3c2-c2ccc(F)cc2)cc(OC)c1OC`, the pIC50 was 4.81 in experiment [1], 4.71 in experiment [2], 4.82 in experiment [3] and 4.56 in experiment [4].

As for `CCc1nn2c(-c3ccc(OC)cc3)c(-c3cc(OC)c(OC)c(OC)c3)nc2s1`, the pIC50 in experiment [1] is 4.67; in experiment [2], 4.60; in experiment [3] it was 4.60; in experiment [4] it was 4.52.

The term inhibition denotes the change of the read-out against control, counted positive when it falls. High values mean a response far below the control, low ones a response near the control. As to `COC(=O)Nc1nc2cc(C(=O)c3cccs3)ccc2[nH]1`, the inhibition in experiment [5] stood at 79.2%.

In the case of `COc1ccc(-c2c(-c3cc(OC)c(OC)c(OC)c3)nc3sc(C4CC4)nn23)cc1`, the pIC50 is 4.84 in experiment [1], 4.94 in experiment [2], 4.98 in experiment [3] and 4.77 in experiment [4].

As to `CCc1nn2c(-c3ccc(Cl)cc3)c(-c3cc(OC)c(OC)c(OC)c3)nc2s1`, the pIC50 in experiment [1] is 4.86; in experiment [2], 4.91; in experiment [3], 4.72; in experiment [4], 4.81.

As to `CCc1nn2c(-c3cc(OC)c(OC)c(OC)c3)c(-c3cc(OC)c(OC)c(OC)c3)nc2s1`, the pIC50 in experiment [1] is 4.76; in experiment [2] it was 4.69; in experiment [3], 4.87; in experiment [4], 4.71.

For the compound `COc1cc(-c2nc3sc(C4CC4)nn3c2-c2cc(F)cc(F)c2)cc(OC)c1OC`, the pIC50 in experiment [1] is 4.76; in experiment [2], 4.63; in experiment [3], 4.77; in experiment [4], 4.53.

In the case of `COc1cc(-c2nc3sc(C4CC4)nn3c2-c2ccc(C)cc2)cc(OC)c1OC`, the pIC50 in experiment [1] is 4.69; in experiment [2], 4.58; in experiment [3], 4.73; in experiment [4], 4.53.

Turning to `COc1cc(-c2nc3sc(C4CC4)nn3c2-c2ccccc2)cc(OC)c1OC`, the pIC50 in experiment [1] was 4.45; in experiment [2] it was 4.37; in experiment [3] it was 4.59; in experiment [4], 4.50.

Turning to `CCc1nn2c(-c3ccccc3)c(-c3cc(OC)c(OC)c(OC)c3)nc2s1`, the pIC50 is 4.97 in experiment [1], 4.94 in experiment [2], 4.84 in experiment [3] and 4.87 in experiment [4].

In the case of `COc1cc(-c2nc3sc(C4CC4)nn3c2-c2ccc(C(F)(F)F)cc2)cc(OC)c1OC`, the pIC50 was 4.36 in experiment [1], 4.74 in experiment [2], 4.82 in experiment [3] and 4.63 in experiment [4].

For the compound `CCc1nn2c(-c3ccc(OC)c(OC)c3)c(-c3cc(OC)c(OC)c(OC)c3)nc2s1`, the pIC50 in experiment [1] is 4.84; in experiment [2] it was 4.94; in experiment [3], 4.88; in experiment [4], 4.84.

For the origin of these results see ChEMBL document CHEMBL3751745, “Aryl-imidazothiadiazole analogues as microtubule disrupting agents” (Medchemcomm, 2015).
